According to EP4711368A1 (priority 2023, dated 2024):
Read-outs that look alike come from different tables or passages of the source.

What was measured:
SD rats [1] = experiment: animal or person; assay type: in vivo; settings: iv; for Minimal effective anesthetic dose / Onset time / Righting feflex duration / Sedation Duration: rat, in vivo; for minimal effective dose: Rattus norvegicus
SD rats [2] = settings: rat, in vivo; for MLD: iv
[3] = read-out: Minimal effective analgesic dose
[4] = read-out: Minimal effective anesthetic dose
Throughout, for Onset time: test concentration or dose not given here.
Throughout, for Righting feflex duration: test concentration or dose not given here.
Throughout, for Sedation Duration: test concentration or dose not given here.

SMILES | Minimal effective anesthetic dose (SD rats [1]) | Onset time (SD rats [1]) | Righting feflex duration (SD rats [1]) | Sedation Duration (SD rats [1]) | TI (SD rats [2]) | MLD (SD rats [2]) | minimal effective dose (SD rats [1]; [3]) | minimal effective dose (SD rats [1]; [4]) | TI (SD rats [2]; SD) | MLD (SD rats [2]; SD)
COC(=O)CCC1N=C(c2ccccn2)c2cc([N+](=O)[O-])ccc2N(C)C1=O (centres unmarked) [Compound 27] | 10.0 mg/kg | 0.2 to 0.5 min | 1.3 to 3.9 min | 4.4 to 10.7 min | >1.8 | >18 mg/kg | – | – | – | –
CC[C@@H](C)OC(=O)CN1N=C(c2ccccn2)c2cc(Br)ccc2-n2c(C)cnc21 [Compound 309] | – | 0.35 to 0.55 min | 2.38 to 18.82 min | 27.68 to 46.83 min | – | – | 12.5 mg/kg | 2.5 mg/kg | 6 | 15 mg/kg
CCOC(=O)CN1N=C(c2ccccn2)c2cc(Br)ccc2-n2c(C)cnc21 [Compound 307] | – | 0.27 to 0.73 min | 0.90 to 4.27 min | 20.87 to 32.75 min | – | – | – | 8.75 mg/kg | >1.7 | >15.15 mg/kg
C#CC(C)(C)OC(=O)CCC1N=C(c2ccccn2)c2cc(Br)ccc2N(C)C1=O (centres unmarked) [Compound 17] | 1.3 mg/kg | 0.2 to 0.5 min | 1.6 to 3.3 min | 6.6 to 9.9 min | >3.8 | >5 mg/kg | – | – | – | –
CON(C)C(=O)OCN1N=C(c2ccccn2)c2cc(Br)ccc2N(C)C1=O [Compound 294] | – | 0.52 to 0.55 min | 3.35 to 6.47 min | 28.68 to 40.58 min | – | – | – | 15 mg/kg | >1.3 | >20 mg/kg
CCC(C)(C)OC(=O)CN1N=C(c2ccccn2)c2cc(Br)ccc2N(C)C1=O [Compound 255] | – | 0.53 to 0.97 min | 12.27 to 13.62 min | 43.43 to 66.14 min | – | – | 20 mg/kg | 15 mg/kg | 2 | 30 mg/kg
Cc1cnc2n1-c1ccc(Br)cc1C(c1ccccn1)=NC2CCOC(=O)C(C)C (centres unmarked) [Compound 146] | 1.0 mg/kg | 0.3 to 0.6 min | 3.7 to 9.7 min | 17.3 to 27.1 min | 5.0 | 5 mg/kg | – | – | – | –
CC[C@@H](C)OC(=O)CN1N=C(c2ccccn2)c2cc(Br)ccc2N(C)C1=O [Compound 243] | – | 0.22 to 0.67 min | 0.65 to 19.85 min | 21.98 to 55.45 min | – | – | – | 5 mg/kg | 6 | 30 mg/kg
CC(C)OC(=O)CN1C2=NCCN2N=C(c2ccccn2)c2cc(Br)ccc21 [Compound 325] | – | 0.65 min | 3.65 min | 59.22 min | – | – | 40 mg/kg | 40 mg/kg | >1 | >40 mg/kg
Cc1cnc2n1-c1ccc(Br)cc1C(c1ccccn1)=NN2CC(=O)OC1COC1 [Compound 311] | – | 0.17 to 0.48 min | 2.28 to 12.30 min | 25.88 to 54.23 min | – | – | 10 mg/kg | 5 mg/kg | 6 | 30 mg/kg
Cc1ccc(C(=O)OCC2N=C(c3ccccn3)c3cc(Br)ccc3-n3c(C)cnc32)cc1 (centres unmarked) [Compound 192] | 5.0 mg/kg | 0.2 to 0.4 min | 5.9 to 14.9 min | 156.7 to 200.0 min | 2.0 | 10.0 mg/kg | – | – | – | –
CCC(=O)OCC1N=C(c2ccccn2)c2cc(Br)ccc2N(C)C1=O (centres unmarked) [Compound 40] | 5.0 mg/kg | 0.2 to 0.5 min | 1.3 to 17.2 min | 40.2 to 364.0 min | 8.0 | 40 mg/kg | – | – | – | –
CN1C(=O)N(CCOC(=O)CCl)N=C(c2ccccn2)c2cc(Br)ccc21 [Compound 300] | – | 0.25 min | 4.67 min | 76.20 min | – | – | – | 40 mg/kg | >1 | >40 mg/kg
C=CC1(OC(=O)CN2N=C(c3ccccn3)c3cc(Br)ccc3N(C)C2=O)COC1 [Compound 254] | – | 0.60 to 0.65 min | 0.78 to 3.10 min | 29.25 to 40.22 min | – | – | – | 10 mg/kg | 2 | 20 mg/kg
C=CC(C)(C)OC(=O)CCC1N=C(c2cccc[n+]2[O-])c2cc(Br)ccc2N(C)C1=O (centres unmarked) [Compound 20] | 15.0 mg/kg | 0.3 to 0.5 min | 4.1 to 6.4 min | 17.0 to 20.3 min | >1.5 | >22.5 mg/kg | – | – | – | –
Cc1cnc2n1-c1ccc(Br)cc1C(c1ccccn1)=NN2COC(=O)CCCl [Compound 319] | – | 0.38 to 0.48 min | 7.58 to 8.00 min | 21.82 to 52.53 min | – | – | – | 7.5 mg/kg | >1.3 | >10 mg/kg

SMILES | Minimal effective anesthetic dose (SD rats [1]) | Onset time (SD rats [1]) | Righting feflex duration (SD rats [1]) | Sedation Duration (SD rats [1]) | TI (SD rats [2]) | MLD (SD rats [2]) | minimal effective dose (SD rats [1]; [3]) | minimal effective dose (SD rats [1]; [4]) | TI (SD rats [2]; SD) | MLD (SD rats [2]; SD)
CC(C)C(=O)CN1N=C(c2ccccn2)c2cc(Br)ccc2N(C)C1=O [Compound 279] | – | 0.35 min | 3.77 min | 62.22 min | – | 20 mg/kg | – | 15 mg/kg | 1.3 | –
CCOc1nonc1CCN1N=C(c2ccccn2)c2cc(Br)ccc2N(C)C1=O [Compound 274] | – | 0.18 min | 4.57 min | 25.87 min | – | – | – | 27.4 mg/kg | >1 | >27.4 mg/kg
CCOC(=O)CCC1N=C(c2ccccn2)c2cc([N+](=O)[O-])ccc2N(C)C1=O (centres unmarked) [Compound 28] | 5.0 mg/kg | 0.2 to 0.5 min | 0.5 to 1.6 min | 4.1 to 7.3 min | >2.3 | >11.3 mg/kg | – | – | – | –
CCn1nnnc1CCN1N=C(c2ccccn2)c2cc(Br)ccc2N(C)C1=O [Compound 264] | – | 0.43 min | 1.77 min | 8.93 min | – | – | – | 5 mg/kg | 2 | 10 mg/kg
Cc1cnc2n1-c1ccc(Br)cc1C(c1ccccn1)=NN2CC(=O)OC1(C)COC1 [Compound 314] | – | 0.15 to 0.67 min | 1.27 to 1.40 min | 11.02 to 18.83 min | – | – | – | 10 mg/kg | 4 | 40 mg/kg
CC(C)C(=O)OCN1N=C(c2ccccn2)c2cc(Br)ccc2N(C)C1=O [Compound 287] | – | 0.32 to 0.43 min | 0.63 to 7.53 min | 44.20 to 46.25 min | – | – | – | 10 mg/kg | 3 | 30 mg/kg
CCN(C)C(=O)OCN1N=C(c2ccccn2)c2cc(Br)ccc2N(C)C1=O [Compound 292] | – | 0.40 min | 2.75 min | 46.82 min | – | – | 20 mg/kg | 20 mg/kg | 1.5 | 30 mg/kg
CN(C)C(=O)OCCN1N=C(c2ccccn2)c2cc(Br)ccc2N(C)C1=O [Compound 304] | – | 0.18 to 0.57 min | 1.92 to 5.35 min | 10.57 to 18.57 min | – | – | – | 5 mg/kg | 4 | 20 mg/kg
Cc1cnc2n1-c1ccc(Br)cc1C(c1ccccn1)=NN2COC(=O)C(C)C [Compound 318] | – | 0.52 to 0.63 min | 0.58 to 10.53 min | 24.95 to 35.65 min | – | – | – | 5 mg/kg | >2 | >10 mg/kg
C#CC(C)(C)OC(=O)CCC1N=C(c2ccccn2)c2cc([N+](=O)[O-])ccc2N(C)C1=O (centres unmarked) [Compound 32] | 5.0 mg/kg | 0.2 to 0.4 min | 1.8 to 7.7 min | 21.1 to 45.7 min | 6.0 | 30 mg/kg | – | – | – | –
CCOC(=O)CN1N=C(c2ccccn2)C(Br)=CN(C)C1=O [Compound 346] | – | 0.57 min | 2.63 min | 45.10 min | – | – | 18.4 mg/kg | 18.4 mg/kg | >1 | >18.4 mg/kg
C=C1N=C(c2ccccn2)c2cc(Br)ccc2N(C)C1=O [Compound 36] | 10.0 mg/kg | 0.4 to 0.9 min | 0.7 to 4.1 min | 8.6 to 14.7 min | 1.9 | 18.7 mg/kg | – | – | – | –
Cc1cnc2n1-c1ccc(Br)cc1C(c1ccccn1)=NN2CCOC(=O)C(C)C [Compound 315] | – | 0.38 to 0.75 min | 0.58 to 2.35 min | 14.12 to 24.55 min | – | – | 30 mg/kg | 3.75 mg/kg | 2.7 | 10 mg/kg
CC(=O)OCCC1N=C(c2ccccn2)c2cc(Br)ccc2N(C)C1=O (centres unmarked) [Compound 115] | 2.5 mg/kg | 0.2 to 0.4 min | 4.9 to 14.1 min | 12.4 to 56.0 min | 16 | 40 mg/kg | – | – | – | –
CCN1C(=O)N(CC(=O)OC(C)C)N=C(c2ccccn2)c2cc(Br)ccc21 [Compound 256] | – | 0.17 to 0.50 min | 0.32 to 26.03 min | 13.38 to 59.65 min | – | – | 10 mg/kg | 5 mg/kg | 6 | 30 mg/kg
